Literature values, collected in US7976869B2, “Fenofibrate tablets” (Laboratoires Fournier S.A., priority 2001, dated 2011).
Read-outs that look alike come from different tables or passages of the source.

Details: conventional gelatin capsule form

**Q.** What does the source list for `CC(C)OC(=O)C(C)(C)Oc1ccc(C(=O)c2ccc(Cl)cc2)cc1` [Fenofibrate]?
**A.** bioavailability (after a meal): 89%; bioavailability (on an empty stomach): 26%
